Patent publication US10065965B2, “Imidazo[1,2-B][1,2,4]triazine derivatives as antiparasitic agents” (GlaxoSmithKline Intellectual Property Development Limited, priority 2015, dated 2018)

Legend:
Format in all cases: cell-based
Leishmania donovani [1] = experiment: Assay 1 intramacrophage Leishmania donovani assay (potency readout); conditions: amastigotes in PMA-treated THP-1 macrophages, 96 h, average number of amastigotes per cell, minimum threshold 4.3, read-out: pEC50 value against Leishmania donovani (converted)
Procedure, shortened: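 THP-1 cells were differentiated with 20 nM PMA for 75 h, infected with amastigotes at MOI 5 for 16 h, then exposed to compound for 96 h in a ten-point 1:3 series from a 50 μM top concentration. Cells were fixed, DAPI/CellMask-stained and imaged by high-content microscopy. pEC50 was derived from amastigotes per cell and from THP-1 count.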

[2] = Assay 5 Leishmania donovani intracellular assay, cytotoxicity against THP-1 cells; conditions: human, total number of THP-1 cells, minimum threshold 4.3, read-out: cytotoxicity against THP-1 cells, pEC50 value (converted)
Description: (§1) Compounds were dispensed into black 384-well assay plates (Greiner) by acoustic dispensing (LabCyte ECHO). For potency determinations, eleven-point, one in three dilution curves were generated, with a top concentration of 50 μM. THP-1 human monocytes cells were dispensed in T225 tissue culture flasks and differentiated using 30 nM of PMA, after 24 hours they were infected overnight using Leishmania donovani expressing Green Fluorescent Protein (eGFP) amastigotes in the same T225 tissue culture flasks at a multiplicity of infection of 10. Next, any remaining free amastigotes were washed away with PBS and the infected THP-1 cells were harvested by trypsinisation. The infected cells were then plated into 384-well plates containing the compounds to be tested, at 3000 cells per well in RPMI media with 2% FBS and 25 mM Sodium bicarbonate. After 96 h incubation at 37° C. in presence of 5% CO2, the plates were fixed with 4% formaldehyde for 30 minutes, washed with PBS and stained with 0.1 mg/mL of DAPI for 30 minutes and washed again with PBS. The plates were imaged on a Perkin Elmer Opera high-content imaging system using a 20× air objective with two expositions, one for DAPI stain and other for eGFP. Images were analysed using the Acapella building blocks system (Perkin Elmer). The image analysis algorithm first identified the THP-1 nuclei followed by demarcation of the cytoplasm and identification of intracellular amastigotes. This algorithm reported mean number of parasites per THP-1 cell, the percentage of infected THP-1 cells and the total number of THP-1 cells.

Leishmania donovani [3] = experiment: Assay 5 Leishmania donovani intracellular assay (eGFP amastigotes in THP-1 cells); conditions: 96 h, read-out: pEC50 value against Leishmania donovani (converted)
Description: as §1, with “The image analysis algorithm first identified the THP-1 nuclei followed by demarcation of the cytoplasm and identification of intracellular amastigotes. This algorithm reported mean number of parasites per THP-1 cell, the percentage of infected THP-1 cells and the total number of THP-1 cells.” left out

[4] = Assay 2 Trypanosoma cruzi intracellular assay, cytotoxicity against VERO cells; conditions: African green monkey, Vero cells infected with T. cruzi trypomastigotes, total number of Vero cells, minimum threshold 4.3, read-out: cytotoxicity against VERO cells, pEC50 (converted)
Description: Compounds were dispensed into black 384-well assay plates (Corning) by acoustic dispensing (LabCyte ECHO). For potency determinations, ten-point one in three dilution curves were generated, with a top concentration of 50 μM. Vero cells were infected overnight with T. cruzi trypomastigotes in T225 tissue culture flasks at a multiplicity of infection of 5. Next, any remaining free trypomastigotes were washed away with serum free MEM media and the infected Vero cells were harvested by trypsinisation. The infected Vero cells were then plated into 384-well plates containing the compounds to be tested, at 4000 cells per well in MEM media with 1% FCS. After 72 h incubation at 37° C. in presence of 5% CO2, the plates were fixed with 4% formaldehyde for 20 minutes at room temperature and stained with 5 μg/ml Hoechst 33342. The plates were imaged on a Perkin Elmer Operetta high-content imaging system using a 20× objective. Images were analysed using the Columbus system (Perkin Elmer). The image analysis algorithm first identified the Vero nuclei followed by demarcation of the cytoplasm and identification of intracellular amastigotes. This algorithm reported mean number of parasites per Vero cell and total number of Vero cells.

O=C(Nc1ccc(F)c(-c2cn3nc(N4CCOCC4)cnc3n2)c1)N1CCCC1 [Example 1, N-(4-fluoro-3-(2-morpholinoimidazo[1,2-b][1,2,4]triazin-6-yl)phenyl)pyrrolidine-1-carboxamide]
EC50 (Leishmania donovani [1]): 0.631 µM
EC50 at 96 h [2]: > 50.1 µM
EC50 (Leishmania donovani [3]): 0.158 µM
EC50 at 72 h [4]: > 50.1 µM
